Measurements taken from PMC10518717, “High-Throughput Screening and Proteomic Characterization of Compounds Targeting Myeloid-Derived Suppressor Cells” (Molecular & Cellular Proteomics : MCP, 2023).

Columns and labels:
NUP-MDSC cell lysate [1] = target: T1, NUP-MDSC cell lysate (Mus musculus, UniProt G5E8Z3); test: Chemoproteomic competition pulldown assay (iCor/iEnt affinity matrix), proteome-wide; assay type: binding; settings: protein 2310050C09Rik (G5E8Z3)
T1 construct: endogenous in cells; host or cells: mouse NUP-MDSC (lysate)
Text: (§1) Targets of the inhibitors were annotated manually.

NUP-MDSC cell lysate [2] = test: as above; assay type: binding, mouse; settings: NUP-MDSC lysate; iCor and iEnt
Text: as §1

NUP-MDSC cell lysate [3] = target: T2, NUP-MDSC cell lysate (Mus musculus, UniProt Q8WUR0); test: as above; assay type: binding; settings: protein 1600014C10Rik (Protein C19orf12 homolog)
T2 construct: endogenous in cells; host or cells: mouse NUP-MDSC (lysate)
T2 sequence (Q8WUR0 1-141): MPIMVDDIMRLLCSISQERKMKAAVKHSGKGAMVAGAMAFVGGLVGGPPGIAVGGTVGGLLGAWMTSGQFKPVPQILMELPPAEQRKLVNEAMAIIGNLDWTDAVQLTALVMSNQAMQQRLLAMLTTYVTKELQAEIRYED
Text: as §1

[4] = tested on: HDAC1/2 and the CoREST complex; settings: NUP-MDSC lysate; competition with iCor pulldown
Procedure: In vitro–differentiated NUP-MDSC were harvested, washed twice with PBS, and cell pellets were stored at −80 °C. For lysis, the pellets were slowly thawed at 20 °C and mixed with lysis buffer (0.8% Igepal, 50 mM Tris–HCl pH 7.5, 5% glycerol, 1.5 mM MgCl2, 150 mM NaCl, 1 mM Na3VO4, 25 mM NaF, 1 mM DTT, and supplemented with protease inhibitors (SigmaFast, Sigma) and phosphatase inhibitors (prepared in-house according to phosphatase inhibitor cocktail 1, 2, and 3 from Sigma-Aldrich)). Before usage, the cell lysates were cleared from debris by ultracentrifugation (52,000×g for 20 min at 4 °C); protein concentration was determined by Bradford assay. […]
Peptides were analyzed via LC-MS/MS on a Dionex Ultimate3000 nano HPLC coupled to an Orbitrap Fusion Lumos mass spectrometer (Thermo Fisher Scientific). […]
The mass spectrometer was operated in data-dependent mode, automatically switching between MS1 and MS2 spectra. […] Up to 12 peptide precursors were isolated (isolation width of 1.2 Th, maxIT of 75 ms, AGC value of 2e5), fragmented by HCD using 30% NCE, and analyzed in the OT at a resolution of 15,000. […]
Protein identification and quantification was performed using MaxQuant (v 1.6.1.0) by searching the LC-MS/MS data against all canonical protein sequences as annotated in the Swissprot reference database (v03.12.15, 20,193 entries, downloaded 22.03.2016) using the embedded search engine Andromeda. […]

NUP-MDSC = test: Global proteome expression profiling of compound-treated NUP-MDSC (TMT LC-MS/MS); assay type: cell-based, mouse; settings: 72 h; for log2 FC ENT_300/DMSO: 300 nM
Procedure: After treatments, medium was removed, cells were washed twice with PBS, and the cell pellets were further subjected to proteomic sample preparation.
The cell pellet was reconstituted in 2% SDS in 50 mM Tris–HCl pH 7.5 and lysed by heating to 95 °C for 10 min. One microliter of 100% TFA was added to each sample to hydrolyze DNA, and the pH was subsequently adjusted to 8.5 with 3 M Tris solution. Disulfide bonds were reduced with 10 mM DTT for 45 min at 37 °C, followed by alkylation of cysteines with 55 mM CAA for 30 min at room temperature. Prior to tryptic digestion, the detergent was removed from lysates by SP3 cleanup on an Agilent BRAVO system (Agilent Technologies), following the protocol first described by Hughes et al. ([34]). Briefly, lysate containing 200 μg of protein was mixed with SP3 beads, and proteins were precipitated onto a 50:50 mixture of Sera-Mag Speed Bead types A and B (Thermo Fisher Scientific) in 58% acetonitrile. Beads were washed three times with 80% ethanol in water and once with acetonitrile. Tryptic digest was performed in 100 μl of digestion buffer (2 mM CaCl2 in 25 mM Hepes, pH 8.5) with a 1:50 enzyme-to-protein ratio. Bead-precipitated proteins were digested at 37 °C overnight. On the next day, the supernatant of each sample was transferred to a new well and vacuum dried.
Dried peptides were reconstituted in water and labeled with the respective TMT10plex-labeling reagent as described previously ([35]) with a protein to tandem mass tag (TMT) reagent ratio of 1:2. Labeled samples were pooled, vacuum dried, and reconstituted in 0.1% formic acid (FA) prior to desalting on SepPAC50 columns (waters corp.). Peptides were fractionated using a Dionex Ultra 3000 HPLC system with a Waters XBridge BEH130 C18 3.5 um 2.1 × 250 mm column as described previously ([36]). Ninety-six fractions were collected and pooled to 48. For the full proteome analysis, one fifth of each fraction was transferred to a new 96-well plate and both plates were vacuum dried. For the phosphopeptide analysis, dried peptides were reconstituted in 55 μl 0.1% TFA in 30% ACN, pooled from 48 to 12 fractions, and mixed with 70 μl priming buffer (0.1% TFA, 100% ACN). Phosphopeptides were enriched from each of the 12 fractions using Fe(III)-IMAC-NTA cartridges on the AssayMAP BRAVO (Agilent Technologies) platform as described previously ([36]). Phosphopeptides were eluted with 60 μl 1% ammonia, vacuum dried, and stored at −20 °C prior to LC-MS/MS analysis.
The Fusion Lumos was operated in data-dependent acquisition and positive ionization mode. Samples were measured employing a MS3 method. In brief, full scan MS1 spectra were recorded in the orbitrap (OT) from 360 to 1560 m/z at 60,000 resolution using an automatic gain control (AGC) target value of 4e5 charges and a maximum injection time (maxIT) of 50 ms. Iontrap-MS2 spectra for peptide identification were acquired using higher energy collision dissociation (HCD) fragmentation with 32% normalized collision energy (NCE), an isolation window of 0.6 m/z, and an AGC target value of 1.2e4 charges. To obtain quantitative information on TMT reporter ions, each peptide precursor was fragmented again as for MS2 analysis followed by synchronous selection of the up to eight most intense peptide fragments in the iontrap ([37]) and further fragmentation via HCD using a NCE of 55%. The MS3 scan was recorded in the OT at 50,000 resolution (scan range 100–1000 m/z, isolation window of 1.2 m/z, AGC of 1e5 charges, maxIT of 86 ms). The cycle time was 1.2 s, and the dynamic exclusion lasted for 50 s.
Peptide, protein, and phosphorylation site identification and quantification were performed with MaxQuant software (v. 1.6.3.3, https://www.maxquant.org/) with standard settings for reporter ion MS3 unless described otherwise ([39]). Isotope impurities of the TMT lot were specified to allow MaxQuant the automated correction of TMT intensities. […]

T1 sequence (G5E8Z3 1-280): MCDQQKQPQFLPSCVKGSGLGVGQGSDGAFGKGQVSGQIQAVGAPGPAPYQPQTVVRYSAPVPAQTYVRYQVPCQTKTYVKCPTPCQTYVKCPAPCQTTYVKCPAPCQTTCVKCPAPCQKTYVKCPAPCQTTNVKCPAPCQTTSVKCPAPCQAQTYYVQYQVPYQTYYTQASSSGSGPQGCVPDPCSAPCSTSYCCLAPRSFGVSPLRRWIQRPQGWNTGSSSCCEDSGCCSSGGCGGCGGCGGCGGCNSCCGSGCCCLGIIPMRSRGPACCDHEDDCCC

Intensity 3nM (NUP-MDSC cell lysate [1]; Entinostat 3nM): 4673000
LFQ intensity 3nM (NUP-MDSC cell lysate [1]; Entinostat 3nM): 0
Intensity 10nM (NUP-MDSC cell lysate [1]; Entinostat 10nM): 39076000
LFQ intensity 10nM (NUP-MDSC cell lysate [1]; Entinostat 10nM): 48940000
Intensity 30nM (NUP-MDSC cell lysate [1]; Entinostat 30nM): 0
LFQ intensity 30nM (NUP-MDSC cell lysate [1]; Entinostat 30nM): 0
Intensity 100nM (NUP-MDSC cell lysate [1]; Entinostat 100nM): 0
LFQ intensity 100nM (NUP-MDSC cell lysate [1]; Entinostat 100nM): 0
Intensity 300nM (NUP-MDSC cell lysate [1]; Entinostat 300nM): 63615000
LFQ intensity 300nM (NUP-MDSC cell lysate [1]; Entinostat 300nM): 92239000
Intensity 1000nM (NUP-MDSC cell lysate [1]; Entinostat 1000nM): 0
LFQ intensity 1000nM (NUP-MDSC cell lysate [1]; Entinostat 1000nM): 0
Intensity 3000nM (NUP-MDSC cell lysate [1]; Entinostat 3000nM): 17259000
LFQ intensity 3000nM (NUP-MDSC cell lysate [1]; Entinostat 3000nM): 18337000
Intensity 30000nM (NUP-MDSC cell lysate [1]; Entinostat 30000nM): 37204000
LFQ intensity 30000nM (NUP-MDSC cell lysate [1]; Entinostat 30000nM): 38240000
Intensity 3nM (NUP-MDSC cell lysate [3]; Entinostat 3nM): 20883000
LFQ intensity 3nM (NUP-MDSC cell lysate [3]; Entinostat 3nM): 42321000
Intensity 10nM (NUP-MDSC cell lysate [3]; Entinostat 10nM): 34795000
LFQ intensity 10nM (NUP-MDSC cell lysate [3]; Entinostat 10nM): 40587000
Intensity 30nM (NUP-MDSC cell lysate [3]; Entinostat 30nM): 27408000
LFQ intensity 30nM (NUP-MDSC cell lysate [3]; Entinostat 30nM): 39634000
Intensity 100nM (NUP-MDSC cell lysate [3]; Entinostat 100nM): 29285000
LFQ intensity 100nM (NUP-MDSC cell lysate [3]; Entinostat 100nM): 35458000
Intensity 300nM (NUP-MDSC cell lysate [3]; Entinostat 300nM): 23203000
LFQ intensity 300nM (NUP-MDSC cell lysate [3]; Entinostat 300nM): 36056000
Intensity 1000nM (NUP-MDSC cell lysate [3]; Entinostat 1000nM): 28303000
LFQ intensity 1000nM (NUP-MDSC cell lysate [3]; Entinostat 1000nM): 37293000
Intensity 3000nM (NUP-MDSC cell lysate [3]; Entinostat 3000nM): 35943000
LFQ intensity 3000nM (NUP-MDSC cell lysate [3]; Entinostat 3000nM): 42228000
Intensity 30000nM (NUP-MDSC cell lysate [3]; Entinostat 30000nM): 27116000
LFQ intensity 30000nM (NUP-MDSC cell lysate [3]; Entinostat 30000nM): 26320000
Structure (SMILES): Nc1ccccc1NC(=O)c1ccc(CNC(=O)OCc2cccnc2)cc1 [entinostat]
additional targets identified (NUP-MDSC cell lysate [2]): No additional targets
target affinity [4]: high affinities
protein expression of Il1a, Il1b, and Il1rn (NUP-MDSC; 30 and 300 nM): dose-dependently upregulated
protein level of Cxcr3, Ccl9, and Ccr5 (NUP-MDSC; 30 and 300 nM, dose-dependent manner): increased
log2 FC ENT_300/DMSO (NUP-MDSC; protein Cask): -0.505
log2 FC ENT_300/DMSO (NUP-MDSC; protein Hsf1): -0.1449
log2 FC ENT_300/DMSO (NUP-MDSC; protein Inpp5j): 0.4672
log2 FC ENT_300/DMSO (NUP-MDSC; protein Magohb;Magoh): 0.03399
